Source: patent US20240122887A1, “THERAPEUTIC USES OF L-4-CHLOROKYNURENINE” (VISTAGEN THERAPEUTICS, INC., priority 2015, published 2024)

Assays:
[1] = cited from earlier work
[2] = biological target: NMDA receptor glycine B (GlyB) coagonist site (Homo sapiens, UniProt Q05586); conditions: vs naturally occurring kynurenic acid; cited from earlier work
[3] = Phase 1b clinical study, plasma pharmacokinetics after oral L-4-chlorokynurenine (LC-MS/MS); conditions: human plasma
Method: (§1) Subjects were randomized into one of three cohorts (360, 1,080, and 1,440 mg) and received a daily oral dose for 14 consecutive days. […] However, a total of 50 subjects were enrolled in this study. […] Forty-six subjects completed the study per protocol.
(§2) Blood was collected in 6-mL lithium heparin Vacutainer tubes. Samples were centrifuged, and the plasma was separated from the cells and frozen within 30 minutes after centrifugation. Centrifuged samples were placed on ice until they were placed in the freezer. Plasma samples were stored frozen at approximately −20° C. until their shipment to a contractor for analysis.
(§3) Baseline samples (0 minutes) were collected before the drug was administered on Day 1 and on Day 14. Samples were then collected at 0.5, 1, 1.5, 2, 4, 6, 8, 12, and 24 hours after dosing on Day 1 and Day 14.
(§4) Both assays used a plasma sample volume of 50.0 μg/mL.

[4] = system: three animal models of peripheral tissue inflammation and nerve injury; test: Animal models of peripheral tissue inflammation and nerve injury; type: in vivo
[5] = system: patients with obsessive-compulsive disorder; test: Treatment of obsessive-compulsive disorder, OCD-VAS / Y-BOCS; type: in vivo, human; conditions: about 20 to about 2,000 mg/day
Method: Patients with obsessive-compulsive disorder (OCD) are treated with L-4-chlorokynurenine to reduce OCD symptoms. […] The dose of L-4-chlorokynurenine is selected from about 20 mg/day up to about 2,000 mg/day, more preferably about 300 mg/day to about 1,500 mg/day and more preferably about 700 mg/day to about 1,200 mg/day.

[6] = system: patients with a diagnosis of MDD; test: Treatment of major depressive disorder, HDRS / MADRS (Example 3); type: in vivo, human; conditions: 1,080 or 1,440 mg/day orally for 2 weeks
Method: Twenty-five patients, both male and female, ages 18 to 65, with a diagnosis of MDD are treated with either L-4-chlorokynurenine (1,080 or 1,440 mg/day given orally) for 2 weeks, similar in design to similar studies. [Ibrahim et al. 2012, Zarate et al. 2013, Zarate et al. 2006, Zarate et al. 2005.] […] [Montgomery et al. 1979] Additional indicators of therapeutic efficacy for a given patient could also be the proportion of subjects achieving remission (HDRS≤7) and response (≥50% reduction from baseline in HDRS total score); change from baseline in Hamilton Anxiety Rating Scale (HAM-A) [Hamilton 1959], Columbia Suicide Severity Rating Scale (C-SSRS) total scores [Posner et al. 2011], as well as other measures of mood or psychological states, for example Beck Depression Inventory (BDI) [Beck et al., 1974], the Visual Analogue Scale (VAS) [Aitken 1969], the Brief Psychiatric Rating Scale (BPRS) [Overall et al. 1962], the Clinician Administered Dissociative Scale (CADSS) [Bremner et al. 1998] and the Young Mania Rating Scale (YMRS) [Young et al. 1978].

[7] = human, in vivo, po
Method: as §1, §2, §3, §4

[8] = system: capsaicin-induced hyperalgesia; test: Antihyperalgesic effect on capsaicin-induced hyperalgesia, VAS pain assessment, Phase 1b study; type: in vivo, human
Method: On Day 1 and Day 14 of the clinical study, two intradermal injections of 250 μg of capsaicin were injected sequentially into the volar aspect of alternate forearms to produce burning pain, secondary hyperalgesia, and a flare. The capsaicin USP (United States Pharmacopeia) was prepared according to the site's standard procedure and dissolved in 20% cyclodextrin at a concentration of 10 mg/mL. The first capsaicin injection in one forearm was given 1 hour after oral administration of L-4-chlorokynurenine or placebo, and the second capsaicin injection was given in the other forearm 2 hours after the administration of L-4-chlorokynurenine or placebo. The neurosensory testing began immediately at each capsaicin injection. The serial pain assessments using a 100-mm visual analog scale (VAS) occurred at preinjection and 0, 5, 10, 15, 30, 45, and 60 minutes after each capsaicin injection. The examiner asked the subject to rate the intensity by using the VAS of the spontaneous pain and elicited pain from the application of a 5.18 von Frey hair, 40° C. probe, and gentle stroking with a 1-inch foam brush. The VAS consisted of a 100-mm line with “no pain” written at the 0-mm end and the “worst imaginable pain” written at the 100-mm end. The distance in millimeters provided the pain measurement. […] At least eight determinations of the hyperalgesic area borders were made using the same assessments and starting at different angles. Additionally, subjects were asked to rate the pain intensity of a 1-minute 45° C. heat stimulus (brief thermal stimulation) applied to the anterior thigh at 4.5 hours (±5 minutes) after study drug administration, then every 30 minutes (±5 minutes) through 6 hours after study drug administration. A radiant temperature probe was applied to fix the skin temperature at 36° C. during the pain assessments. Subjects used the VAS for all pain assessments. All study assessment time points were anchored to Time 0, the time of study drug administration. […]

[9] = system: patients with chronic tinnitus; test: Treatment of tinnitus, TQ / SF-36 / audiometric parameters (Example 5); type: in vivo, human; conditions: daily oral dose escalated 180, 720, 1440 mg/day
Method: One hundred male or female patients between 20-65 years of age with mon- or binaural chronic tinnitus lasting for at least 3-months are enrolled in the study. Patients are randomized into a drug and placebo groups, baseline psychometric and health measurements are taken, followed by blind administration of a daily single oral dose for 14-days of either L-4-chlorokynurenine (initial dose of 180 mg) or placebo. Subsequent psychometric and health measurements are taken at 3-, 7-, and 14-days post (prior to next drug administration) drug administration. At 14, and 28 days the dose of AV-101 is increased to 720 and 1440 mg/day respectively. At 42 and 70 days, all patients are given the panel of psychometric and health measurements. […]
Primary success measures are a statistically significant difference between the mean TQ scores of L-4-chlorokynurenine and placebo groups. […] Student t-test for independent samples or the Mann-Whitney test at each time point are used to assess the statistical significance of the quantitative data. The significance of the qualitative data is assessed with chi-square test or the Fisher exact test. To assess improvement over time and dose, TQ and secondary measurements are evaluated using Friedman Variance Analysis and similar tools for variance analysis.

dopaminergic neurons = conditions: brains of rats; cited from earlier work

SMILES	Crossing of the blood-brain barrier ([1]; in vivo)	Potency and selectivity relative to endogenous KYNA [2]	Mean 7-chlorokynurenic acid AIC0-t ([3]; Day 1, after 1,440-mg oral dose of L-4-chlorokynurenine) [ng·h/mL]	Mean 7-chlorokynurenic acid AIC0-t ([3]; Day 1, after lowest oral dose (360 mg) of L-4-chlorokynurenine) [ng·h/mL]	Mean 7-chlorokynurenic acid Cmax and AIC0-t on Day 14 compared with Day 1 ([3]; once-daily oral doses of L-4-chlorokynurenine for 14 days)	Antihyperalgesic action in animal models [4]	Access to the central nervous system ([1]; after oral or parenteral administration)	OCD symptoms (OCD-VAS, Y-BOCS) [5]	HDRS and/or MADRS total scores (overall depressive symptomatology) [6]	Mean L-4-chlorokynurenine AIC0-t [7] [ng·h/mL]	Mean L-4-chlorokynurenine Cmax and AIC0-t on Day 14 compared with Day 1 [7]	Mean t1/2 of L-4-chlorokynurenine [7] [h]	Least squares means of the AUPC for allodynia pain, mechanical hyperalgesia pain and heat hyperalgesia pain vs placebo ([8]; 1,080 mg (Cohort 2))	Secondary efficacy endpoints (AUPC spontaneous pain, elicited pain von Frey hair, 40° C. probe), treatment vs placebo ([8]; 120 to 180 min Day 1, 60 to 180 min Days 1 and 14)	Area under the pain time curve (AUPC) for spontaneous pain, treatment vs placebo (primary efficacy endpoint) ([8]; each dose level, 120 to 180 minutes after dosing on Day 14)	Symptoms of tinnitus (TQ, SF-36) [9]	Firing rate and burst firing activity of dopaminergic neurons (dopaminergic neurons)
O=C(O)c1cc(O)c2ccc(Cl)cc2n1 [7-chlorokynurenic acid]	does not cross the blood-brain barrier	about 20 ×	985	156	slightly lower on Day 14												
Nc1cc(Cl)ccc1C(=O)CC(N)C(=O)O [L-4-chlorokynurenine]						potent antihyperalgesic actions	readily gains access to the central nervous system	Patients show improvement	significant decrease	196000	slightly lower on Day 14	1.64 to 1.82	consistent decrease	no significant changes	no significant change	show improvement	increase
